The numbers were not newly measured in patent publication EP0540813B1, “Sustained release formulations of acetazolamide” (AMERICAN CYANAMID COMPANY, priority 1991, dated 1993), which cites them from elsewhere.

Each structure is given as a SMILES string.

For the data set the following is noted: reported in the literature.

With `CC(=O)Nc1nnc(S(N)(=O)=O)s1` [acetazolamide, N-(5-sulphamoyl-1,3,4-thiadiazol-2-yl)acetamide], the “plasma levels considered toxic” value is on record as “above 30 µg/ml” and the therapeutic plasma range was 5 to 10 µg/mL.
